Test results as given in US12338236B2, “Benzoisothiazole and benzoisoxazole compounds for the treatment of mental disorders” (SUVEN LIFE SCIENCES LIMITED, priority 2022, dated 2025).
Counter-ions that a name gives are not always drawn.

How the values were obtained:
[1] = biological target: T1, human 5-HT1A receptor (Homo sapiens, UniProt P08908); test: Determination of Ki values at 5-HT1A receptor ([3H]-8-Hydroxy DPAT radioligand binding); conditions: h5-HT1A, HEK293-EBNA, [3H]-8-Hydroxy DPAT 0.8 nM
T1 construct: expressed in transfected cells; host or cells: HEK293-EBNA
T1 sequence (P08908 1-422): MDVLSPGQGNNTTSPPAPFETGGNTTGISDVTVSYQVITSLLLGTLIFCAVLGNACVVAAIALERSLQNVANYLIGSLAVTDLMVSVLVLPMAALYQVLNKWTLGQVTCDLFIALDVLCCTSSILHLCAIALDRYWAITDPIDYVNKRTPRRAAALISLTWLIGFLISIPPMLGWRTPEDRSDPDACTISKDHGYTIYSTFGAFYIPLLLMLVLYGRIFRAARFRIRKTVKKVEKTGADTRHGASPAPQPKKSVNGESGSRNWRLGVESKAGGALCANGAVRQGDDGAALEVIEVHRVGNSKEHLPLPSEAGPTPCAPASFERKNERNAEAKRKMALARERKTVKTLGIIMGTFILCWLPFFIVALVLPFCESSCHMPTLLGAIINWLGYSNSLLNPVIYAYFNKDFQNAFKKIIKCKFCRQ
Description: Example-43: Determination of Ki Values at 5-HT1A Receptor
• Receptor source: Recombinant mammalian cells (HEK293-EBNA) • Radioligand: [^3H]-8-Hydroxy DPAT (200 Ci/mmol) • Final ligand concentration: 0.8 nM • Non-specific determinant: 0.1 mM U92016A • Reference compound: U92016A • Positive control: U92016A Incubation conditions: Reactions were carried out in buffer with pH 7.4 containing 50 mM Tris-HCl, 0.5 mM EDTA, 10 mM MgSO4, 0.1% Ascorbic acid for 2 h at RT. The reaction was terminated by rapid vacuum filtration onto the glass fiber filters. Radioactivity trapped onto the filters was determined and compared to the control values in order to ascertain any interactions of the test compound(s) with cloned human 5-HT1A receptor binding site.

[2] = biological target: T2, human SERT (Homo sapiens, UniProt P31645); test: Determination of Ki values at SERT receptor ([3H]-Citalopram SPA binding); conditions: hSERT, HEK293, [3H]-Citalopram 2 nM
T2 construct: expressed in transfected cells; host or cells: HEK293
T2 sequence (P31645 whole entry): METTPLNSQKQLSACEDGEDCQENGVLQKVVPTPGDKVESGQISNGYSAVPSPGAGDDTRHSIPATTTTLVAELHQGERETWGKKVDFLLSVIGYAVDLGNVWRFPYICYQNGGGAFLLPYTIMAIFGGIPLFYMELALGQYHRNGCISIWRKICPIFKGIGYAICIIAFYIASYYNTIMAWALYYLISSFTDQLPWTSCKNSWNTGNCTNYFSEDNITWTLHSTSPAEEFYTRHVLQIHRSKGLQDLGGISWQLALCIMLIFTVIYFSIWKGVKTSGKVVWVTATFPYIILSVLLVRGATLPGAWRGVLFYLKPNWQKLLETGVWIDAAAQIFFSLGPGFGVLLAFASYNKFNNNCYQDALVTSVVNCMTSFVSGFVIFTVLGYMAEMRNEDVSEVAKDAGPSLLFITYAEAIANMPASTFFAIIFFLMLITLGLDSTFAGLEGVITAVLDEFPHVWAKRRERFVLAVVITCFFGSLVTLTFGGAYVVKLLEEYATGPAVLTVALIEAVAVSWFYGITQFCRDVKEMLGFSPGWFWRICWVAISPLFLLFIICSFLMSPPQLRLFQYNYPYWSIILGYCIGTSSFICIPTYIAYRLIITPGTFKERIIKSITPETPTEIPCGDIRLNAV
Description: Example-46: Determination of Ki Values at SERT Receptor
• Receptor source: Recombinant mammalian cells (HEK293) • Radioligand: [^3H]-Citalopram (80.8 Ci/mmol) • Final ligand concentration: 2 nM • Non-specific determinant: 0.1 mM Venlafaxine • Reference compound: Venlafaxine • Positive control: Venlafaxine Incubation conditions: Reactions were carried out in buffer with pH 7.4 containing 50 mM Tris-HCl, 150 mM NaCl, 5 mM KCl and Scintillation proximity assay (SPA) beads (0.1 mg/well) for 3 h at RT. Radioactivity proximal to SPA beads was determined by scintillation proximity assay and compared to the control values in order to ascertain any interactions of the test compound(s) with cloned human SERT receptor binding site.

[3] = biological target: T3, human histamine H1 receptor (Homo sapiens, UniProt P35367); test: Determination of Ki values at histamine H1 receptor ([3H]-Pyrilamine SPA binding); conditions: hH1, CHO-K1, [3H]-Pyrilamine 2 nM
T3 construct: expressed in transfected cells; host or cells: CHO-K1
T3 sequence (P35367 whole entry): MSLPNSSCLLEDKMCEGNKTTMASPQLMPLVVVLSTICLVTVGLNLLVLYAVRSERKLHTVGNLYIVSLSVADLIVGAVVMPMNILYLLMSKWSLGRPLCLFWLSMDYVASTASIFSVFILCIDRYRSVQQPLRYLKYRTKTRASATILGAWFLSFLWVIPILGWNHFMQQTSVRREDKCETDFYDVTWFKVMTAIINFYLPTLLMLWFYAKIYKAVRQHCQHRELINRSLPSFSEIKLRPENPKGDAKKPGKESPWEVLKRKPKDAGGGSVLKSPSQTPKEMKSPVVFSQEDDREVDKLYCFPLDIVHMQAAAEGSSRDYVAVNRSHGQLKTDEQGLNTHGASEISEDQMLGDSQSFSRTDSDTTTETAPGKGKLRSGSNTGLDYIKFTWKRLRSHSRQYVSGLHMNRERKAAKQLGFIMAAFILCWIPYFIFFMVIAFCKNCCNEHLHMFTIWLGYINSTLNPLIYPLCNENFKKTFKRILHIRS
Description: Example-48: Determination of Ki values at Histamine H1 receptor
• Receptor source: Recombinant mammalian cells (CHO-K1) • Radioligand: [^3H]-Pyrilamine (20.7 Ci/mmol) • Final ligand concentration: 2 nM • Non-specific determinant: 0.1 mM Pyrilamine • Reference compound: Pyrilamine • Positive control: Pyrilamine Incubation conditions: Reactions were carried out in buffer with pH 7.4 containing 67 mM Tris-HCl and SPA beads (0.1 mg/well) for 1 h at 37° C. Radioactivity proximal to SPA beads was determined by scintillation proximity assay and compared to the control values in order to ascertain any interactions of the test compound(s) with cloned human histamine H1 receptor binding site.

[4] = biological target: T4, human dopamine D2s receptor (Homo sapiens, UniProt P14416); test: Determination of Ki values at D2S receptor ([3H]-Raclopride radioligand binding); conditions: hD2 (D2S), CHO-K1, [3H]-Raclopride 4 nM; read-out: Ki D2
T4 construct: expressed in transfected cells; host or cells: CHO-K1
T4 sequence (P14416 1-414 isoform P14416-2): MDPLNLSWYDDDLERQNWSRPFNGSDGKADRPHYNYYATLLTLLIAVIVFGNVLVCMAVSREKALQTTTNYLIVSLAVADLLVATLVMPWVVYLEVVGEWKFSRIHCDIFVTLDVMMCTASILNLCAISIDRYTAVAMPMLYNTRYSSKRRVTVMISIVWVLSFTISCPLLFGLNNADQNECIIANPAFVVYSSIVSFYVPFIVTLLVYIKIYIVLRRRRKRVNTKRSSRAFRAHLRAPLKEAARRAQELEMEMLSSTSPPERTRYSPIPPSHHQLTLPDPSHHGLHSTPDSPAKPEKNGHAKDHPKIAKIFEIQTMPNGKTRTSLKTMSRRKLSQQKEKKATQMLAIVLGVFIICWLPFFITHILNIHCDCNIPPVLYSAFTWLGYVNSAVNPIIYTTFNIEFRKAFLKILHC
Description: Example-45: Determination of Ki Values at D2S Receptor
• Receptor source: Recombinant mammalian cells (CHO-K1) • Radioligand: [^3H]-Raclopride (80.8 Ci/mmol) • Final ligand concentration: 4 nM • Non-specific determinant: 0.1 mM Haloperidol • Reference compound: Haloperidol • Positive control: Haloperidol Incubation conditions: Reactions were carried out in buffer with pH 7.4 containing 50 mM Tris-HCl, 120 mM NaCl, 5 mM KCl, 5 mM MgCl2, 1 mM EDTA for 2 h at RT. The reaction was terminated by rapid vacuum filtration onto the glass fiber filters. Radioactivity trapped onto the filters was determined and compared to the control values in order to ascertain any interactions of the test compound(s) with cloned human dopamine D2s receptor binding site.

[5] = biological target: T5, human 5-HT2A receptor (Homo sapiens, UniProt P28223); test: Determination of Ki values at 5-HT2A receptor ([3H]-Ketanserine radioligand binding); conditions: h5-HT2A, CHO-K1, [3H]-Ketanserine 1.25 nM
T5 construct: expressed in transfected cells; host or cells: CHO-K1
T5 sequence (P28223 whole entry): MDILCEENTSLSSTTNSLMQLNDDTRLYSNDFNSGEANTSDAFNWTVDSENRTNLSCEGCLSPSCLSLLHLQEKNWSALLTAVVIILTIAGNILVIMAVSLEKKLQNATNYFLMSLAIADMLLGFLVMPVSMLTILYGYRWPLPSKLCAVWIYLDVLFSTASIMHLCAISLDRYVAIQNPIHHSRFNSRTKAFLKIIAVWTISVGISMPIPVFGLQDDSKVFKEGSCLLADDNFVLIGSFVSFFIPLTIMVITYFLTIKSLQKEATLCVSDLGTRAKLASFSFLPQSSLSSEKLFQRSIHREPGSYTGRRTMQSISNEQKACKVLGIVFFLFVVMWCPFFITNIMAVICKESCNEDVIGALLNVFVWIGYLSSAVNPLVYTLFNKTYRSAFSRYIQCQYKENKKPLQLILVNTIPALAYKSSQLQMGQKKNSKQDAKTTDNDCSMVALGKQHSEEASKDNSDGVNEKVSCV
Description: Example-44: Determination of Ki Values at 5-HT2A Receptor
• Receptor source: Recombinant mammalian cells (CHO-K1) • Radioligand: [^3H]-Ketanserine (41.9 Ci/mmol) • Final ligand concentration: 1.25 nM • Non-specific determinant: 0.1 mM 1-Napthyl piperazine (1-NP) • Reference compound: 1-Napthyl piperazine (1-NP) • Positive control: 1-Napthyl piperazine (1-NP) Incubation conditions: Reactions were carried out in buffer with pH 7.4 containing 50 mM Tris-HCl, 4 mM CaCl2, 0.1% Ascorbic acid for 1 h at RT. The reaction was terminated by rapid vacuum filtration onto the glass fiber filters. Radioactivity trapped onto the filters was determined and compared to the control values in order to ascertain any interactions of the test compound(s) with cloned human 5-HT2A receptor binding site.

[6] = biological target: T6, human adrenergic α1B receptor (Homo sapiens, UniProt P35368); test: Determination of Ki values at adrenergic α1B receptor ([3H]-Prazosin radioligand binding); conditions: hα1B, Chem-1 cells, [3H]-Prazosin 1 nM; read-out: Ki Alpha1B
T6 construct: expressed in transfected cells; host or cells: Chem-1
T6 sequence (P35368 1-520): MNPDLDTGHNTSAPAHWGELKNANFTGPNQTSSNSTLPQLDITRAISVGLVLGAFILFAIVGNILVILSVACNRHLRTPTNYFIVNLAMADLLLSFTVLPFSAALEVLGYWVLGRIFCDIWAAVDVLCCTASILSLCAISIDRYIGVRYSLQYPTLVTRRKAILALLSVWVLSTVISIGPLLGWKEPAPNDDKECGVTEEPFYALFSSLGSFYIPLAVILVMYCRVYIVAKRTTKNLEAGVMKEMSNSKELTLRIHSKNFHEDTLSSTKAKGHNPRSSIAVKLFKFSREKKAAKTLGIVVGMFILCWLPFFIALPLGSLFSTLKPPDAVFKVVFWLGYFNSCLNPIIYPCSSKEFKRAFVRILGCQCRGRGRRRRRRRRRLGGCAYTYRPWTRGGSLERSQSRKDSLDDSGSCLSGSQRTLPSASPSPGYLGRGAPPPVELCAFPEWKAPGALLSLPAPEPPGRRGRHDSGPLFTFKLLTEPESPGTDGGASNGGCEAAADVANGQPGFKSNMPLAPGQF
Description: Example-47: Determination of Ki Values at Adrenergic α1B Receptor
• Receptor source: Recombinant mammalian cells (Chem-1) • Radioligand: [^3H]-Prazosin (77.4 Ci/mmol) • Final ligand concentration: 1 nM • Non-specific determinant: 0.1 mM Prazosin • Reference compound: Prazosin • Positive control: Prazosin Incubation conditions: Reactions were carried out in buffer with pH 7.4 containing 67 mM Tris-HCl, 67 μM EDTA, […] for 1 h at RT. The reaction was terminated by rapid vacuum filtration onto the glass fiber filters. Radioactivity trapped onto the filters was determined and compared to the control values in order to ascertain any interactions of the test compound(s) with cloned human adrenergic α1B receptor binding site.

[7] = system: DOPA levels in striatum; test: Reserpine-induced DOPA accumulation; assay type: in vivo, Male Wistar rats; conditions: rats, s.c.
Description: Example-53: Reserpine-Induced DOPA Accumulation
Male Wistar rats were pretreated with reserpine (5 mg/kg, s.c.) approximately 18 h before sacrifice and were thereafter fasted until sacrifice. Example-2 (3 mg/kg, p.o.) and (3-(3-hydroxyphenyl)-N-n-propylpiperidine (3-PPP); 30 mg/kg, s.c.) were administered 1.16 h and 1 h, respectively before sacrifice. Haloperidol (0.5 mg/kg, s.c.) was used as a positive control and was dosed 10 min prior to 3-PPP in a separate group of animals. 3-Hydroxybenzylhydrazine dihydrochloride (NSD-1015; 100 mg/kg, s.c.) was then administered 0.5 h before sacrifice. Each rat was sacrificed, brain was removed and then striatum was isolated. The tissue was immediately weighed and homogenized in 0.1 N perchloric acid by means of an ultrasonic disruptor while being cooled in ice. The homogenate was centrifuged at 4° C. at 20,000 g for 15 min. The supernatant was assayed for dihydroxyphenylalanine (DOPA) levels using HPLC-ECD.

| Structure (SMILES) | Ki [1] [nM] | Ki [2] [nM] | Ki [3] [nM] | Ki [4] [nM] | Ki [5] [nM] | Ki [6] [nM] | Increase in DOPA levels in striatum ([7]; reserpine 5 mg/kg, about 18 h before sacrifice) | Reversal in reserpine induced DOPA accumulation ([7]; 30 mg/kg, 1 h before sacrifice, striatum) [%] |
| --- | --- | --- | --- | --- | --- | --- | --- | --- |
| Cc1nc(-c2csc(OCCCN3CCN(c4nsc5ccccc45)CC3)n2)no1 [compound 10, 3-(4-{3-[4-(5-Methyl-[1,2,4]oxadiazol-3-yl)-thiazol-2-yloxy]-propyl}-piperazin-1-yl)-benzo[d]isothiazole oxalate] | 0.4 | 217 | 4.2 | 1.5 | 0.5 | 44.1 |  |  |
| c1ccc2c(N3CCN(CCCOc4ccc(-c5cnco5)cn4)CC3)nsc2c1 [compound 22, 3-{4-[3-(5-Oxazol-5-yl-pyridin-2-yloxy)-propyl]-piperazin-1-yl}-benzo[d]isothiazole oxalate] | 0.3 | 18.8 | 1.8 | 0.4 | 0.01 | 5.7 |  |  |
| Cc1nnc(-c2csc(OCCCN3CCC(c4noc5cc(F)ccc45)CC3)n2)o1 [compound 24, 6-Fluoro-3-(1-{3-[4-(5-methyl-[1,3,4]oxadiazol-2-yl)-thiazol-2-yloxy]-propyl}-piperidin-4-yl)-benzo[d]isoxazole oxalate] | 1.8 | 1670 | 3.5 | 0.7 | 0.3 | 1.5 |  |  |
| Cc1nnc(-c2csc(OCCCN3CCN(c4nsc5ccccc45)CC3)n2)o1 [Example-1, 3-(4-{3-[4-(5-Methyl-[1,3,4]oxadiazol-2-yl)-thiazol-2-yloxy]-propyl}-piperazin-1-yl)-benzo[d]isothiazole] | 0.1 | 54.3 | 8.8 | 0.51 | 0.35 | 12.5 |  |  |
| COC(=O)[C@H]1[C@H]2C[C@@H]3c4[nH]c5cc(OC)ccc5c4CCN3C[C@H]2C[C@@H](OC(=O)c2cc(OC)c(OC)c(OC)c2)[C@@H]1OC [reserpine] |  |  |  |  |  |  | about 194% |  |
| CCCN1CCCC(c2cccc(O)c2)C1 (centres unmarked) [Example 3-PPP, 3-(3-hydroxyphenyl)-N-n-propylpiperidine] |  |  |  |  |  |  |  | 77 |
